{"source": "paper PMC9022196", "about": "(Pharmacology Research & Perspectives, 2022)", "key": {"[1]": {"tested_on": "LMH cells", "experiment": "ATPLite cytotoxicity assay in LMH cells", "details": "1 mM compound in the presence of DFO"}, "[2]": {"tested_on": "LMH cells", "experiment": "Fluorescence-based in vitro drug screening assay", "assay_type": "cell-based, chicken", "details": "for Fluorescence reading / Fluorescence readings compared with the […] AIA control: 18–24 h; for Fluorescence reading: ex 410/em 625 nm; for Porphyrogenicity / PP accumulation (authors' conclusion in words): with and without DFO; for Fluorescence readings compared with the […] AIA control: in the presence of DFO, 0–1 mM"}, "[3]": {"tested_on": "human liver organoids", "experiment": "Fluorescence-based in vitro drug screening assay in human liver organoids", "assay_type": "cell-based", "details": "approximately 100 human liver organoids, 0.5 mM compound + DFO, 18–24 h"}, "[4]": {"tested_on": "HepG2 spheroids", "experiment": "Fluorescence-based in vitro drug screening assay in HepG2 spheroids", "assay_type": "cell-based, human", "details": "for Fluorescence reading compared with background: HepG2 organoids/spheroids, 0.5 mM compound with and without DFO"}, "[5]": {"tested_on": "HepG2 cells", "experiment": "Fluorescence-based in vitro drug screening assay", "assay_type": "cell-based, human", "details": "1 mM compound + DFO, 18–24 h"}, "[6]": {"details": "cited from earlier work; for Maximal plasma concentration: ref 39 (Nagelschmitz et al.), listed as aspirin"}, "[7]": {"experiment": "ATPLite cytotoxicity assay in LMH cells", "details": "chicken, CC50, LMH cells, 18–24 h, presence of 250 μM DFO"}, "[8]": {"tested_on": "hydroxymethylbilane synthase", "details": "human erythrocytes; cited from earlier work"}, "[9]": {"tested_on": "hydroxymethylbilane synthase", "details": "rat livers; cited from earlier work"}, "[10]": {"details": "1 mM compound in the presence of DFO"}, "[11]": {"details": "LMH cells, 1 mM compound + 250 μM DFO"}, "[12]": {"details": "LMH cells, […] compound + 250 μM DFO"}, "[13]": {"details": "humans, typically used oral doses"}}, "note": "Several values for one entry are separate records, joined by “and”; a condition that tells them apart may be missing. Equal values may be shown once. Entries after “also recorded” stand apart in the source; their conditions may differ. Where a name gives a salt, the structure may show the parent alone. Read-outs that look alike come from different tables or passages of the source."}
{"compound": "NCC(=O)CCC(=O)O", "note": "[ALA, 5‐aminolevulinic acid]", "values": [{"measurement": "Cytotoxic effect", "setting": "[1]", "result": "mild cytotoxic effects"}, {"measurement": "Fold higher fluorescence readings in LMH cells than in HepG2 cells", "setting": "[2]; [10]", "result": "approximately 2.1 fold"}, {"measurement": "Fold higher fluorescence readings in LMH cells than in HepG2 organoids", "setting": "[2]; [10]", "result": "~1.9", "unit": "fold"}, {"measurement": "Fold higher fluorescence readings in LMH cells than in human liver organoids", "setting": "[2]; [10]", "result": "~7", "unit": "fold"}, {"measurement": "Fluorescence reading", "setting": "[2]; [11]", "result": "above 10 000 RFU"}, {"measurement": "Fluorescence reading", "setting": "[3]", "result": "above 1600 RFU"}, {"measurement": "Fluorescence reading", "setting": "[4]; approximately 200 HepG2 spheroids, 0.5 mM compound + DFO, 18–24 h", "result": "above 6000 RFU"}, {"measurement": "Fluorescence reading", "setting": "[5]", "result": "above 5000 RFU"}]}
{"compound": "CCCCC(=O)N(Cc1ccc(-c2ccccc2-c2nnn[nH]2)cc1)[C@H](C(=O)O)C(C)C", "note": "[valsartan]", "values": [{"measurement": "Porphyrogenicity / PP accumulation (authors' conclusion in words)", "setting": "[2]; LMH cells", "result": "did not show evidence of porphyrogenicity"}]}
{"compound": "CCC1(c2ccccc2)C(=O)NC(=O)NC1=O", "note": "[phenobarbital]", "values": [{"measurement": "Maximal serum concentration", "setting": "[6]; 2.9-mg/kg oral dose, ref 43 (Nelson et al.)", "result": "approximately 5.5 mg/L; also recorded: around 0.024 mM"}, {"measurement": "Fluorescence reading", "setting": "[2]; [11]", "result": "7513 ± 48", "unit": "RFU"}, {"measurement": "Fluorescence readings compared with the AIA positive control", "setting": "[2]; LMH cells, concentrations around 0.024 mM", "result": "close to the AIA positive control"}, {"measurement": "Fluorescence readings compared with the […] AIA control", "setting": "[2]; LMH cells", "result": "above the 0.314‐mM AIA control"}, {"measurement": "Fluorescence reading compared with background", "setting": "[4]", "result": "failed to produce fluorescence readings above background"}]}
{"compound": "CC(=O)Oc1ccccc1C(=O)O", "note": "[acetylsalicylic acid]", "values": [{"measurement": "Maximal plasma concentration", "setting": "[6]; intravenous 500-mg dose", "result": "54.25 mg/L and 0.30 mM"}, {"measurement": "Maximal plasma concentration", "setting": "[6]; oral 500-mg dose", "result": "4.84 mg/L and 0.027 mM"}, {"measurement": "Porphyrogenicity / PP accumulation (authors' conclusion in words)", "setting": "[2]; LMH cells", "result": "not porphyrogenic"}]}
{"compound": "O=C1NC(=O)C(c2ccccc2)(c2ccccc2)N1", "note": "[phenytoin sodium]", "values": [{"measurement": "Maximal serum concentration", "setting": "[6]; humans, oral 300-mg dose, ref 44 (Suthisisang et al.)", "result": "approximately 1.98 µg/ml and ~7.22 µM"}]}
{"compound": "CCCC(CCC)C(=O)O", "note": "[sodium valproate]", "values": [{"measurement": "Porphyrogenicity / PP accumulation (authors' conclusion in words)", "setting": "[2]; LMH cells", "result": "porphyrogenic"}]}
{"compound": "O=C1NC(=O)C(c2ccccc2)(c2ccccc2)N1", "note": "[phenytoin]", "values": [{"measurement": "Fluorescence reading", "setting": "[2]; [12]", "result": "5913 ± 190", "unit": "RFU"}, {"measurement": "Fluorescence readings compared with the […] AIA control", "setting": "[2]; LMH cells", "result": "above the 0.314‐mM AIA control"}, {"measurement": "Porphyrogenicity / PP accumulation (authors' conclusion in words)", "setting": "[2]; LMH cells", "result": "porphyrogenic"}, {"measurement": "Fluorescence reading compared with background", "setting": "[4]", "result": "failed to produce fluorescence readings above background"}]}
{"compound": "C#CC1(O)CC[C@H]2[C@@H]3CCC4=CC(=O)CC[C@@H]4[C@H]3CC[C@@]21CC", "note": "(mixture of isomers) [norgestrel, D (‐) norgestrel]", "values": [{"measurement": "Maximal serum concentration", "setting": "[6]; [13]", "result": "approximately 14.1 ng/ml"}, {"measurement": "Fluorescence reading", "setting": "[2]; [12]", "result": "6890 ± 106", "unit": "RFU"}, {"measurement": "Fluorescence readings compared with the […] AIA control", "setting": "[2]; LMH cells", "result": "above the 0.314‐mM AIA control"}, {"measurement": "Porphyrogenicity / PP accumulation (authors' conclusion in words)", "setting": "[2]; LMH cells", "result": "porphyrogenic; also recorded: notable accumulation of PP"}]}
{"compound": "CC(=O)Nc1ccc(O)cc1", "note": "[acetaminophen]", "values": [{"measurement": "Maximum plasma concentration", "setting": "[6]; oral 1000-mg tablet, ref 40 (Hong et al.)", "result": "approximately 8.79 mg/L and ~0.058 mM"}, {"measurement": "Porphyrogenicity / PP accumulation (authors' conclusion in words)", "setting": "[2]; LMH cells", "result": "not porphyrogenic"}]}
{"compound": "C[C@]12CC[C@@H]3c4ccc(O)cc4CC[C@H]3[C@@H]1CC[C@@H]2O", "note": "[β‐estradiol]", "values": [{"measurement": "Porphyrogenicity / PP accumulation (authors' conclusion in words)", "setting": "[2]; LMH cells", "result": "notable accumulation of PP"}]}
{"compound": "CCN(CCO)CCCC(C)Nc1ccnc2cc(Cl)ccc12", "note": "(stereo not drawn) [hydroxychloroquine, hydroxychloroquine sulfate]", "values": [{"measurement": "CC50", "setting": "[7]", "result": 381, "unit": "µM"}, {"measurement": "Porphyrogenicity / PP accumulation (authors' conclusion in words)", "setting": "[2]; LMH cells", "result": "does not upregulate hepatic ALAS‐1"}]}
{"compound": "Cc1noc(NS(=O)(=O)c2ccc(N)cc2)c1C", "note": "[sulfisoxazole]", "values": [{"measurement": "Effect on the activity of hydroxymethylbilane synthase", "setting": "[8]", "result": "did not affect the activity"}, {"measurement": "Porphyrogenicity / PP accumulation (authors' conclusion in words)", "setting": "[2]; LMH cells", "result": "neither of these drugs led to excess PP accumulation"}, {"measurement": "Effect on the activity of hydroxymethylbilane synthase", "setting": "[9]", "result": "did not affect the activity"}]}
{"compound": "CCCC(CCC)C(=O)O", "note": "[valproic acid]", "values": [{"measurement": "Maximal serum concentration", "setting": "[6]; humans, typically used oral doses (norgestrel, valproic acid)", "result": "~8.81", "unit": "mM"}, {"measurement": "Maximal serum concentration", "setting": "[6]; [13]", "result": "approximately 1271 mg/L"}]}
{"compound": "C[C@](N)(Cc1ccc(O)c(O)c1)C(=O)O", "note": "[alpha‐methyldopa]", "values": [{"measurement": "CC50", "setting": "[7]", "result": 164, "unit": "µM"}, {"measurement": "Porphyrogenicity / PP accumulation (authors' conclusion in words)", "setting": "[2]; LMH cells", "result": "did not lead to an appreciable accumulation of PP"}]}
